Results from publication PMC6472032 (Marine Drugs, 2019).
Positions of bridges follow the written chain, without caps; N, C: chain ends. Non-standard residues stand in square brackets, D forms with d. Residues, ends and D or L forms follow the SMILES beside them.

How the values were obtained:
rat α9α10 nAChR = rat α9α10 nAChR (Rattus norvegicus, UniProt P43144+Q9JLB5); experiment: cell-based; settings: for inhibition at 0.1 µM: read-out: inhibition of ACh-evoked current amplitude; for inhibition of ACh-evoked current amplitude: 0.1 µM
Sequence of rat α9α10 nAChR (P43144 26-479 limits assumed): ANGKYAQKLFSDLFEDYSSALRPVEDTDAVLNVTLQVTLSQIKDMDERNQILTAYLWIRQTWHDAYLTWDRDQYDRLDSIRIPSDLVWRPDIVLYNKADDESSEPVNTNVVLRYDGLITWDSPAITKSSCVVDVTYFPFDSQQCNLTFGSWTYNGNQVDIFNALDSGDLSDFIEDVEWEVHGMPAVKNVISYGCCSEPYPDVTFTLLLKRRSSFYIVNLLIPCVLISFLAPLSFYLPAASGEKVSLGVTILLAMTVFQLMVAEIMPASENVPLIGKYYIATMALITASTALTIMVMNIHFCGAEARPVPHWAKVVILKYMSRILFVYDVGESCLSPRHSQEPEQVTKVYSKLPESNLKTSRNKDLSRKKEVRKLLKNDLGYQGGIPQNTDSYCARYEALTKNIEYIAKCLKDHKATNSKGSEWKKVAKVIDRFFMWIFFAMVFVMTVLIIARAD
Sequence of rat α9α10 nAChR (Q9JLB5 25-447 limits assumed): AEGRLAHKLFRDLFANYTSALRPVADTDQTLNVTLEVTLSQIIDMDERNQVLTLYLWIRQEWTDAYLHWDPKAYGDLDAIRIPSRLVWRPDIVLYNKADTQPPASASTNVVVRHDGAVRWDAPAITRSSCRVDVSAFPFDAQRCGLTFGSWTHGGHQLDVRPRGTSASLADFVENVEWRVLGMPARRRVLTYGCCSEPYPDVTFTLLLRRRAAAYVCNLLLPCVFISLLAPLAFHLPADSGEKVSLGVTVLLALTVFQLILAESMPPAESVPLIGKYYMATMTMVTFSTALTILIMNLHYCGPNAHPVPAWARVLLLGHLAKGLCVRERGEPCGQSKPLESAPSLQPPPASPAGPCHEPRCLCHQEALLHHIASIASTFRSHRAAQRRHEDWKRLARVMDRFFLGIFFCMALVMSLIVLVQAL

human α9α10 nAChR = human α9α10 nAChR (Homo sapiens, UniProt Q9GZZ6+Q9UGM1); experiment: cell-based; settings: for inhibition at 10 µM: read-out: inhibition of ACh-evoked currents
Sequence of human α9α10 nAChR (Q9UGM1 26-479 limits assumed): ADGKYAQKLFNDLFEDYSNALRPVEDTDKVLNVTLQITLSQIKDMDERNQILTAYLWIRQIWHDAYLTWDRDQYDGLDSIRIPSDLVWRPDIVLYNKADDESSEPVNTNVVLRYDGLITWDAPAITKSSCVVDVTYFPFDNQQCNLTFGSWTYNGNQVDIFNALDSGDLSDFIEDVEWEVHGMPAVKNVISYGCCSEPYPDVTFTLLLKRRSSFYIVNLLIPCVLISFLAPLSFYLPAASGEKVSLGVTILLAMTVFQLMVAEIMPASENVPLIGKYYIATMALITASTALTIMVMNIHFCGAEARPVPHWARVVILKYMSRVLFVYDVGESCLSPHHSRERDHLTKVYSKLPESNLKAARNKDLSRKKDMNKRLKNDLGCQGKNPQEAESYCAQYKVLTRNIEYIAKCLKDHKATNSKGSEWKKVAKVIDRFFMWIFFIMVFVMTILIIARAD
Sequence of human α9α10 nAChR (Q9GZZ6 25-450 limits assumed): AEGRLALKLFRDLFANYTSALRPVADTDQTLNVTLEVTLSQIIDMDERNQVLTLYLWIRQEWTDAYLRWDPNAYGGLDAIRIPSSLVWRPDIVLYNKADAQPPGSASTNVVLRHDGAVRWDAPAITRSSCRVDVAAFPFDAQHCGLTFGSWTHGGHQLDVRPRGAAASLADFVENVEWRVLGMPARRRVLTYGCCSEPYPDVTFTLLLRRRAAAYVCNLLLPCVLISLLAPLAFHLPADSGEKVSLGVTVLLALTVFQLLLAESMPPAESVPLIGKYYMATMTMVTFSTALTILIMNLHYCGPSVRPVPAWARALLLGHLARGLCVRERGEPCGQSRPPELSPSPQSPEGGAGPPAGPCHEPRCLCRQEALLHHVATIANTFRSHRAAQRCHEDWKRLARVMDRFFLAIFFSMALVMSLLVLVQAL

rat α6/α3β4 nAChR = rat α6/α3β4 nAChR (Rattus norvegicus, UniProt P04757+P12392+P43143); type: cell-based
rat α3β2 nAChR = rat α3β2 nAChR (Rattus norvegicus, UniProt P04757+P12390); type: cell-based
Sequence of rat α3β2 nAChR (P04757 26-499 limits assumed): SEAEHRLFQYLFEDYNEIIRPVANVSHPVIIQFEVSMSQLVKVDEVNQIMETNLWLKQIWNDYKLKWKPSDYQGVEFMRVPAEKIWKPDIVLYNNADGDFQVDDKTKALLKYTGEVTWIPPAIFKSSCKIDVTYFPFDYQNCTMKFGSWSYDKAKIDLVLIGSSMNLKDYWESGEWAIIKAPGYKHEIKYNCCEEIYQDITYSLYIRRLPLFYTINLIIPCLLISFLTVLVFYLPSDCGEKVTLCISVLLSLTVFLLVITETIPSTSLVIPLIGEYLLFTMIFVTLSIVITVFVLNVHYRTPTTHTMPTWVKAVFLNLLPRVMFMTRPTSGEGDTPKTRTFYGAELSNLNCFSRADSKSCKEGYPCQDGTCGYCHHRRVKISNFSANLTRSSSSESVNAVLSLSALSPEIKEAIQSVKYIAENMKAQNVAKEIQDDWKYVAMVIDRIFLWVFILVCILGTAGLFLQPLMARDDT
Sequence of rat α3β2 nAChR (P12390 25-500 limits assumed): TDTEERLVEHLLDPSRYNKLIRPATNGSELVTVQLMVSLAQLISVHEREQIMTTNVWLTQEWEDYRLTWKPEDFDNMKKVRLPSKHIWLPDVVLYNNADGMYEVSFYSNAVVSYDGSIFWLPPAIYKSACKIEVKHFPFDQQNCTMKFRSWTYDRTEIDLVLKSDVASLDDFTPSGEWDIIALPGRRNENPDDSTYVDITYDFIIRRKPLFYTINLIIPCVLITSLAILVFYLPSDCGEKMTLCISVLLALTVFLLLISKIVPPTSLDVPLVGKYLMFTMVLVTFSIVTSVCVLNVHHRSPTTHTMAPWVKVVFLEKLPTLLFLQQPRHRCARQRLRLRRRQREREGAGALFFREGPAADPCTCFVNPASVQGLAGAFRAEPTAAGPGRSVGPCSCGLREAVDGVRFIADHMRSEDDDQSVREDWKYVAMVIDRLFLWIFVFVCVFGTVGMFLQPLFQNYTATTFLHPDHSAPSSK

rat α4β4 nAChR = rat α4β4 nAChR (Rattus norvegicus, UniProt P09483+P12392); type: cell-based
Sequence of rat α4β4 nAChR (P09483 31-630 limits assumed): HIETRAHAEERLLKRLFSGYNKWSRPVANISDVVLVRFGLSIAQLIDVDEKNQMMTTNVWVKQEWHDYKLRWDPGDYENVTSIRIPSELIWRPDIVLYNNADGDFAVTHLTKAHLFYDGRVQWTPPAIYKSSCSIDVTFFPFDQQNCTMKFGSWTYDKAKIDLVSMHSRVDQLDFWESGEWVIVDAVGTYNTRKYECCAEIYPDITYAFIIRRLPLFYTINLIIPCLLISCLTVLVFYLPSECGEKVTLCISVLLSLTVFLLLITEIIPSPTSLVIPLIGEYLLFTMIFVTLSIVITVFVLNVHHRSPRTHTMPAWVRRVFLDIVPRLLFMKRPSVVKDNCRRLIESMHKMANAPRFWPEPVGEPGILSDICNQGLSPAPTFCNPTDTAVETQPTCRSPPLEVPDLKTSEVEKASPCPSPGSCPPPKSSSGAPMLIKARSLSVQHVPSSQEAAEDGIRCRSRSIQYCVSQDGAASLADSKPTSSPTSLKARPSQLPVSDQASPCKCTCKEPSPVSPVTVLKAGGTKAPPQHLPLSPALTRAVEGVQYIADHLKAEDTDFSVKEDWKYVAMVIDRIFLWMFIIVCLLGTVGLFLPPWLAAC
Sequence of rat α4β4 nAChR (P12392 21-495 limits assumed): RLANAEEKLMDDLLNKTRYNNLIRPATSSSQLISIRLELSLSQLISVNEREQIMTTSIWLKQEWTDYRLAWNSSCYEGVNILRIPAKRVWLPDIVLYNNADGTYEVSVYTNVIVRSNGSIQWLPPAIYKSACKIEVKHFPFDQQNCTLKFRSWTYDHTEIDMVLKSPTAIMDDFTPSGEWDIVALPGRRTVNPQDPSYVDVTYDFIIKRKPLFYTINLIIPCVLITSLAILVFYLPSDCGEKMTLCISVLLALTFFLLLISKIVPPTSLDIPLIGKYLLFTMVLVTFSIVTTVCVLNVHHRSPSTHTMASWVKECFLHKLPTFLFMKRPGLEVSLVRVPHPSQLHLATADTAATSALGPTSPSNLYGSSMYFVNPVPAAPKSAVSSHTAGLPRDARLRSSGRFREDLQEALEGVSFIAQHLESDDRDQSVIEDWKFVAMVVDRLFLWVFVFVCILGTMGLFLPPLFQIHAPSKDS

rat α2β4 nAChR = rat α2β4 nAChR (Rattus norvegicus, UniProt P12389+P12392); type: cell-based
Sequence of rat α2β4 nAChR (P12389 28-511 limits assumed): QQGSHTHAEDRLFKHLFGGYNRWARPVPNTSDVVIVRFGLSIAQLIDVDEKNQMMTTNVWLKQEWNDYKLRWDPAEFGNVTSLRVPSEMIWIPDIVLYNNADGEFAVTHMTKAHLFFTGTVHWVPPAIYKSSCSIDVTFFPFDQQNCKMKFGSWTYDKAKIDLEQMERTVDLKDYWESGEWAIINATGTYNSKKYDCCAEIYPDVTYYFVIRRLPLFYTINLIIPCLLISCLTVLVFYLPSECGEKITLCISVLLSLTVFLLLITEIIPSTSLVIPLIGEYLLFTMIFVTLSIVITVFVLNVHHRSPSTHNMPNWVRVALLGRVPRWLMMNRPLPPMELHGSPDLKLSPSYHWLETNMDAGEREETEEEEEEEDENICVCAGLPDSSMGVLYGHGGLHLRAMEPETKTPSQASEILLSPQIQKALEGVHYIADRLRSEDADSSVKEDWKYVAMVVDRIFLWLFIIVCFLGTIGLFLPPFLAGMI
Sequence of rat α2β4 nAChR (P12392 21-495 limits assumed): as the sequence (P12392 21-495 limits assumed) above

rat α4β2 nAChR = rat α4β2 nAChR (Rattus norvegicus, UniProt P09483+P12390); type: cell-based
Sequence of rat α4β2 nAChR (P09483 31-630 limits assumed): as the sequence (P09483 31-630 limits assumed) above
Sequence of rat α4β2 nAChR (P12390 25-500 limits assumed): as the sequence (P12390 25-500 limits assumed) above

With `N=C(N)NCCC[C@H](NC(=O)[C@@H]1CSSC[C@@H]2NC(=O)[C@@H](NC(=O)CN)CSSC[C@H](NC(=O)[C@H](CCCNC(=N)N)NC(=O)[C@@H]3CCCN3C(=O)[C@H](CC(=O)O)NC(=O)[C@@H](CO)NC2=O)C(=O)N[C@@H](CCCNC(=N)N)C(=O)N[C@@H](Cc2ccc(O)cc2)C(=O)N[C@@H](CCCNC(=N)N)C(=O)N1)C(=O)O` [Compound 4] as the compound, how does the “activity at a concentration of 10 μM” value (rat α9α10 nAChR) read?
The value was “not active”.

With `N=C(N)NCCC[C@H](NC(=O)[C@@H]1CSSC[C@@H]2NC(=O)[C@@H](NC(=O)CN)CSSC[C@H](NC(=O)[C@H](CCCNC(=N)N)NC(=O)[C@H]3CCCN3C(=O)[C@H](CC(=O)O)NC(=O)[C@H](CO)NC2=O)C(=O)N[C@@H](CCCNC(=N)N)C(=O)N[C@@H](Cc2ccc(O)cc2)C(=O)N[C@@H](CCCNC(=N)N)C(=O)N1)C(=O)O` [Compound 6] as the compound, how does the “activity at a concentration of 10 μM” value (rat α9α10 nAChR) read?
Its value is “not active”.

How did the “activity at a concentration of 10 μM” value (rat α9α10 nAChR) turn out when `N=C(N)NCCC[C@H](NC(=O)[C@@H]1CSSC[C@@H]2NC(=O)[C@@H](NC(=O)CN)CSSC[C@H](NC(=O)[C@H](CCCNC(=N)N)NC(=O)[C@@H]3CCCN3C(=O)[C@@H](CC(=O)O)NC(=O)[C@H](CO)NC2=O)C(=O)N[C@@H](CCCNC(=N)N)C(=O)N[C@@H](Cc2ccc(O)cc2)C(=O)N[C@@H](CCCNC(=N)N)C(=O)N1)C(=O)O` [Compound 5] was run?
The value was “not active”.

`N=C(N)NCCC[C@H](NC(=O)[C@@H]1CSSC[C@H]2NC(=O)[C@@H](NC(=O)CN)CSSC[C@H](NC(=O)[C@H](CCCNC(=N)N)NC(=O)[C@@H]3CCCN3C(=O)[C@H](CC(=O)O)NC(=O)[C@H](CO)NC2=O)C(=O)N[C@@H](CCCNC(=N)N)C(=O)N[C@@H](Cc2ccc(O)cc2)C(=O)N[C@@H](CCCNC(=N)N)C(=O)N1)C(=O)O` [Compound 3] was tested. Which inhibition at 0.1 µM (rat α9α10 nAChR) did it give?
The inhibition at 0.1 µM was 78.7 ± 2%.

What does the source list for `C[C@@H](N)C(=O)N[C@H]1CSSC[C@@H]2NC(=O)[C@H](CCCNC(=N)N)NC(=O)[C@@H]3CCCN3C(=O)[C@H](CC(=O)O)NC(=O)[C@H](CO)NC(=O)[C@H](CSSC[C@@H](C(=O)N[C@@H](CCCNC(=N)N)C(=O)O)NC(=O)[C@H](CCCNC(=N)N)NC(=O)[C@H](Cc3ccc(O)cc3)NC(=O)[C@H](CCCNC(=N)N)NC2=O)NC1=O` [Compound 1] (H-[dA]CCSDPRCRYRCR-OH; disulfide 2-8, 3-12)?
IC50 (rat α9α10 nAChR): 0.0411 µM; inhibition at 0.1 µM (rat α9α10 nAChR): 70.6 ± 2%; IC50 (human α9α10 nAChR): > 10 µM

How did the “activity against rat α6/α3β4 nAChR” value (rat α6/α3β4 nAChR) turn out when `N=C(N)NCCC[C@@H](NC(=O)[C@@H]1CSSC[C@@H]2NC(=O)[C@@H](NC(=O)CN)CSSC[C@H](NC(=O)[C@@H](CCCNC(=N)N)NC(=O)[C@@H]3CCCN3C(=O)[C@H](CC(=O)O)NC(=O)[C@H](CO)NC2=O)C(=O)N[C@H](CCCNC(=N)N)C(=O)N[C@@H](Cc2ccc(O)cc2)C(=O)N[C@H](CCCNC(=N)N)C(=O)N1)C(=O)O` [Compound 14] was run?
The value was “inactive”.

And the “inhibition of ACh-evoked current amplitude” value (rat α9α10 nAChR)?
Its value is “did not inhibit”.

What about the “activity against rat α3β2 nAChR” value (rat α3β2 nAChR) of the same compound?
The value was “inactive”.

What about the “activity against rat α4β4 nAChR” value (rat α4β4 nAChR) of the same compound?
The value was “inactive”.

And the inhibition at 10 µM (human α9α10 nAChR)?
Its inhibition at 10 µM is 70 to 90%.

What about the “activity against rat α2β4 nAChR” value (rat α2β4 nAChR) of the same compound?
The value was “inactive”.

What about the “activity against rat α4β2 nAChR” value (rat α4β2 nAChR) of the same compound?
Its value is “inactive”.

With `N=C(N)NCCC[C@H](NC(=O)[C@@H]1CSSC[C@@H]2NC(=O)[C@@H](NC(=O)CN)CSSC[C@H](NC(=O)[C@H](CCCNC(=N)N)NC(=O)[C@@H]3CCCN3C(=O)[C@H](CC(=O)O)NC(=O)[C@H](CO)NC2=O)C(=O)N[C@@H](CCCNC(=N)N)C(=O)N[C@@H](Cc2ccc(O)cc2)C(=O)N[C@H](CCCNC(=N)N)C(=O)N1)C(=O)O` [Compound 11] as the compound, how does the “activity at a concentration of 10 μM” value (rat α9α10 nAChR) read?
Its value is “not active”.

How did the “activity at a concentration of 10 μM” value (rat α9α10 nAChR) turn out when `N=C(N)NCCC[C@H](NC(=O)[C@@H]1CSSC[C@@H]2NC(=O)[C@@H](NC(=O)CN)CSSC[C@H](NC(=O)[C@@H](CCCNC(=N)N)NC(=O)[C@@H]3CCCN3C(=O)[C@H](CC(=O)O)NC(=O)[C@H](CO)NC2=O)C(=O)N[C@@H](CCCNC(=N)N)C(=O)N[C@@H](Cc2ccc(O)cc2)C(=O)N[C@@H](CCCNC(=N)N)C(=O)N1)C(=O)O` [Compound 7] was run?
Its value is “not active”.

What does the source list for `N=C(N)NCCC[C@H]1NC(=O)[C@H](Cc2ccc(O)cc2)NC(=O)[C@@H](CCCNC(=N)N)NC(=O)[C@@H]2CSSC[C@H](NC(=O)CN)C(=O)N[C@@H](CSSC[C@@H](C(N)=O)NC1=O)C(=O)N[C@@H](CO)C(=O)N[C@@H](CC(=O)O)C(=O)N1CCC[C@H]1C(=O)N[C@H](CCCNC(=N)N)C(=O)N2` [Compound 15] (H-GCCSDP[dR]C[dR]Y[dR]C-NH2; disulfide 2-8, 3-12)?
activity against rat α6/α3β4 nAChR (rat α6/α3β4 nAChR): inactive; IC50 (rat α9α10 nAChR): 0.288 µM; inhibition of ACh-evoked current amplitude (rat α9α10 nAChR): did not inhibit; activity against rat α3β2 nAChR (rat α3β2 nAChR): inactive; activity against rat α4β4 nAChR (rat α4β4 nAChR): inactive; IC50 (human α9α10 nAChR): 0.68 µM; inhibition at 10 µM (human α9α10 nAChR): 70 to 90%; activity against rat α2β4 nAChR (rat α2β4 nAChR): inactive; activity against rat α4β2 nAChR (rat α4β2 nAChR): inactive

With `N=C(N)NCCC[C@@H]1NC(=O)[C@@H]2CSSC[C@H](NC(=O)CN)C(=O)N[C@@H](CSSC[C@@H](C(=O)N[C@H](CCCNC(=N)N)C(=O)O)NC(=O)[C@H](CCCNC(=N)N)NC(=O)[C@H](Cc3ccc(O)cc3)NC1=O)C(=O)N[C@@H](CO)C(=O)N[C@@H](CC(=O)O)C(=O)N1CCC[C@H]1C(=O)N[C@@H](CCCNC(=N)N)C(=O)N2` [Compound 13] as the compound, how does the “activity against rat α6/α3β4 nAChR” value (rat α6/α3β4 nAChR) read?
The value was “inactive”.

And the inhibition at 0.1 µM (rat α9α10 nAChR)?
Its inhibition at 0.1 µM is 97.2 ± 0.05%.

What about the “activity against rat α3β2 nAChR” value (rat α3β2 nAChR) of the same compound?
Its value is “inactive”.

What about the “activity against rat α4β4 nAChR” value (rat α4β4 nAChR) of the same compound?
Its value is “inactive”.

What about the inhibition at 10 µM (human α9α10 nAChR) of the same compound?
The inhibition at 10 µM was 70 to 90%.

What about the “activity against rat α2β4 nAChR” value (rat α2β4 nAChR) of the same compound?
The value was “inactive”.

What about the “activity against rat α4β2 nAChR” value (rat α4β2 nAChR) of the same compound?
The value was “inactive”.
